Assay results reported in patent US8481691B2, “Method for selectively extracting membrane proteins using calixarenes” (Centre National de la Recherche Scientifique—CNRS, priority 2008, dated 2013).

Experiments:
BmrA [1] = target: T1, BmrA (Bacillus subtilis, UniProt O06967); assay: Solubilization of BmrA from enriched membrane fractions (centrifugation, SDS PAGE); format: biochemical, E. coli membrane fraction; conditions: for Solubilization of BmrA (found in supernatant): detergent 10 mg/ml (1%), 2 mg proteins/ml, 2 hrs at 4° C., FIG. 7; for Solubilization of BmrA: FIG. 8
T1 construct: made in house; host or cells: E. coli C41 BL21(DE3), plasmid pET15b-BMRA; isolated membrane fraction
From the text: The gray and black dotted lines and the black line serve as a scale of the efficacy of the molecules to be solubilized. The “no det” lines signify “without detergent”.
The experimental conditions are those of FIG. 7, with the exception of the concentrations of the butyl, heptyl and dodecyl molecules which are as indicated in the figure, for which the g/L<->M correspondence is indicated in Table 2. The “no det” lines signify “without detergent”.
The competent bacteria C41 BL21(DE3) E. coli (Escherichia coli) were transformed with the plasmid pET15b-BMRA bearing the gene coding for BmrA and placed under the control of an inducible promoter and a gene coding for the protein conferring resistance to ampicillin. A positive clone was cultured in a liquid medium at 37° C. and 200 rpm in the presence of ampicillin until a semi-exponential growth phase. The expression of BmrA is induced by addition of 1 mM of isopropyl thio β-galactoside and continued at 25° C. for 4 hrs. The bacteria were harvested by centrifugation, disrupted in a French press, and the membrane fraction was isolated by a series of centrifugation stages at low and high speeds. The protein content was evaluated by colorimetry and set at 20 mg/ml (20 mM Tris-Cl pH 8.0, […] NaCl, 300 mM sucrose) before freezing and storage in liquid nitrogen. Before use, the membrane fraction is then rapidly thawed in water and maintained at 4° C. in ice.
The solubilization is effected at 4° C.

[2] = Critical Micellar Concentration estimated from surface tension data; format: physicochemical
Description: The effect of the molecules having an alkyl chain with 1 to 12 methylene groups (m, x axis in the figure) on the CMC is measured at a concentration of 10^−2 M, at pH 6.0 (solid circles) and 8.0 (open circles). Each point corresponds to the mean of three values, estimated from the data from FIG. 2.
(§1) The surfactant properties of the calixarenes of formula (I) are evaluated in a 1 ml sitting drop by means of a Kibron micro-depression instrument and using a stainless steel syringe and a Wilhelmy balance. The curves obtained are processed with the software Sigmaplot v11.
Critical Micellar Concentration (CMC) is understood to mean the concentration beyond which the concentration of the detergent molecules no longer increases since said molecules are involved in micelles (FIG. 13). […] Conversely, when the alkyl chains include more than 8 methylene groups, the resulting CMC decreases appreciably to 0.15 mM when the pH increases from 6 to 8.

[3] = Aggregation state / apparent diameter of aggregates; format: physicochemical
BmrA [4] = target: T1, BmrA; assay: Vanadate-sensitive ATPase activity of BmrA after solubilization; format: biochemical; conditions: for ATPase activity of BmrA after reconstitution in liposomes: after removal of the detergents; for Loss of ATPase activity of BmrA once solubilized: relative to BmrA activity in natural membranes; for ATPase activity of BmrA with solubilization: increasing detergent concentration; for ATPase activity of BmrA with solubilization / Effect on ATPase activity of BmrA: FIG. 9; for Effect on ATPase activity of BmrA: 1 mg/ml
From the text: The solubilization tests take place as in FIG. 8 and the ATPase activity tests are described in example 11. The vertical dotted lines show the CMC of each compound. The black lozenges correspond to a test in which BmrA is solubilized with p(COOH)3—Ar4-o(C7H15) then reconstituted in lipids after removal of the detergent with biobeads (Bio-Rad) according to the procedure described in Lenoir et al..
The percentage of specific ATPase activity sensitive to vanadate (% SA or % VO4 sensitive Specific ATPase Activity) is evaluated for the following different cases: • BmrA Mb: activity of BmrA in natural membranes, • DDM sup./DDM: activity of BmrA in the DDM extract, • DDM sup./Lip.: activity of BmrA from the DDM extract and reconstituted in liposomes, • FC12 sup./FC12: activity of BmrA in the Foscholine 12 extract, • FC12 sup./Lip.: activity of BmrA from the Foscholine 12 extract and reconstituted in liposomes, • C4C7 sup./[…]: activity of BmrA in the calixarene C4C7 (in other words calix[4]arene-O-heptyloxy) extract, • C4C7 sup./Lip.: activity of BmrA from the calixarene C4C7 extract and reconstituted in liposomes.
FIG. 12 summarizes the results of an extraction successively using the calixarenes C4C3 then C4C7 (FIG. 12A) followed by purification by gel filtration chromatography (FIGS. 12B-E).
The ATPase activity is measured by evaluating the inorganic phosphate content (Pi) after 5 minutes of incubation at 37° C. The fraction of Pi produced by other ATPase activities is deducted by measuring the same activity in the presence of 1 mM of ortho vanadate which inhibits the ATPase activity of BmrA (for example as described in [10]).
The effect of the solubilization by the p(COOH)3—Ar4-o(CnH2n+1) series on the ATPase activity of BmrA was analyzed under the same conditions as in FIG. 8.
The effects of the solubilization on the activity of the BmrA protein were evaluated with various C4Cn calixarenes, in other words the p(COOH)3—Ar4-o(CnH2n+1) calixarenes, but also with the control detergents such as Foscholine 12 (FC12) and β-D-dodecyl maltopyranoside (DDM), then the extracts obtained (supernatant fractions) were dialyzed in the presence of liposomes in order to restore a membrane environment, which enables the recovery of the activity of the protein.

[5] = Surface tension measurement of water (surfactant properties); format: physicochemical
From the text: The effect of the derivatives of calix[4]arene containing alkyl chains with 1 to 12 carbon atoms on the surface tension of water was followed as a function of the concentration of said derivatives (molar M or mol/L) at pH 6.0 (not exposed) and 8.0 (exposed). The surface-active properties of DDM (β-D-dodecyl malto-pyranoside) are also shown in this figure. Each point corresponds to the mean of three values.
The effect of the molecules containing an alkyl chain having from 1 to 12 methylene groups (n, x axis in FIG. 3) on the surface tension of water was measured at a concentration of 10^−2M, at pH 6.0 (open circles) and at pH 8.0 (squares). Each point corresponds to the mean of three values.
as §1

[6] = Modulation of surfactant potential by amino acids (surface tension); format: physicochemical; conditions: compound 10^−2 M, pH 8.0
Description: The compound p(COOH)3—Ar4-o(C7H15) is present at a concentration of 10^−2 M whereas that of the amino acids vary as indicated. The surface tension is measured at pH 8.0. The amino acids are indicated by their three-letter code: Glu=glutamic acid, Trp=tryptophan, Asn=asparagine, Gly=glycine, Ala=alanine, Ser=serine, Phe=phenylalanine, Leu=leucine, Pro=Proline, Lys=lysine, His=histidine, Arg=arginine. Each point corresponds to the mean of three values.
as §1

T1 sequence (O06967 whole entry): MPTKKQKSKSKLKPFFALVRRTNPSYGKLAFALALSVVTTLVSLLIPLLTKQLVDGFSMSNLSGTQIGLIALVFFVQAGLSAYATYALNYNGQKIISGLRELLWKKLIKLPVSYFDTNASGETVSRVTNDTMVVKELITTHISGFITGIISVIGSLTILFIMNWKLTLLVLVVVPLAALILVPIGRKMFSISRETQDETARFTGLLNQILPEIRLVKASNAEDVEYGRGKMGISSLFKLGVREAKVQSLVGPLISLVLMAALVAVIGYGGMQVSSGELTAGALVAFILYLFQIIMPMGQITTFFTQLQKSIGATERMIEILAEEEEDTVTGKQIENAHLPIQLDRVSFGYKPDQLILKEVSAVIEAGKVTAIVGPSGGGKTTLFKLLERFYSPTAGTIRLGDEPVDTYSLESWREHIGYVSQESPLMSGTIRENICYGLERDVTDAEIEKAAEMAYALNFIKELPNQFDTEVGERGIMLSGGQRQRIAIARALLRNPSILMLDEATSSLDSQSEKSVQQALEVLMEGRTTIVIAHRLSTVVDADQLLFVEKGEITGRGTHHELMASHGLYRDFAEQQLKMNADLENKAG

COc1c2cccc1Cc1cc(CC(=O)O)cc(c1O)Cc1cc(CC(=O)O)cc(c1O)Cc1cc(CC(=O)O)cc(c1O)C2 [compound 5a, 5,11,17 tris-[(carboxylato)methyl]25-mono-methyloxy 26,27,28 tris-hydroxycalix[4]arene]
Solubilization of BmrA (found in supernatant) (BmrA [1]): No solubilization | CMC [2]: >1.5 mM | Apparent diameter (nm) ([3]; pH 2): 950 nm | Apparent diameter (nm) ([3]; pH 4): 340 nm | Apparent diameter (nm) ([3]; pH 8): 270 nm

CCCCCCCCCCCCO[C@@H]1O[C@H](CO)[C@@H](O[C@H]2O[C@H](CO)[C@@H](O)[C@H](O)[C@H]2O)[C@H](O)[C@H]1O [DDM, n-dodecyl-β-D-maltopyranoside]
Solubilization of BmrA (found in supernatant) (BmrA [1]): more pronounced | ATPase activity of BmrA after reconstitution in liposomes (BmrA [4]; FIG. 11): recovered | Loss of ATPase activity of BmrA once solubilized (BmrA [4]; FIG. 11): 95%

CCCCCCCCCCCCOCCOCCOCCOCCOCCOCCOCCOCCO [C12E8]
ATPase activity of BmrA with solubilization (BmrA [4]): decreases with the solubilization

CCCCCCCCCCCCOc1c2cccc1Cc1cc(CC(=O)O)cc(c1O)Cc1cc(CC(=O)O)cc(c1O)Cc1cc(CC(=O)O)cc(c1O)C2 [compound 5d, 5,11,17 tris-[(carboxylato)methyl]25-mono-dodecyl 26,27,28 tris-hydroxycalix[4]arene]
Solubilization of BmrA (BmrA [1]; 1 mg/ml): rather effectively | Solubilization of BmrA (BmrA [1]; at CMC of 0.15 mM (0.1 g/L)): no solubilization | CMC [2]: ~0.15 mM | Critical Micellar Concentration (CMC) [2]: 0.15 mM | Apparent diameter (nm) ([3]; pH 2): 880 nm | Apparent diameter (nm) ([3]; pH 6): 190 nm | Surface tension plateau relative to initial surface tension ([5]; 10^−2 M, pH 8.0, FIG. 3): half the initial surface tension | Surfactant properties (ability to decrease the surface tension of water) ([5]; as a function of concentration, FIG. 2): surfactant properties close to those of DDM | Effect on ATPase activity of BmrA (BmrA [4]): does not lead to inactivation

calix[4]arene-O-heptyloxy [C4C7]
Solubilization of BmrA (BmrA [1]; 1 mg/ml): rather effectively | Effect of amino acid on surface tension ([6]; alanine, phenylalanine, leucine): amplified | Effect of amino acid on surface tension ([6]; glutamic acid or asparagine): No effect | Effect of amino acid on surface tension ([6]; glycine): moderate effect | Effect of amino acid on surface tension ([6]; positively charged amino acids histidine, lysine, arginine, listed as n=7): very pronounced | Effect of amino acid on surface tension ([6]; positively charged amino acids histidine, lysine, arginine, listed as p(COOH)3—Ar4-o(C7H15)): easily increased | CMC [2]: ~1.5 mM | Critical Micellar Concentration (CMC) [2]: about 1.5 mM | Effect on ATPase activity of BmrA (BmrA [4]): does not lead to inactivation | ATPase activity of BmrA preserved (BmrA [4]; C4C3 and C4C7 used successively, FIG. 11): about 50% | ATPase activity of BmrA fraction after gel filtration (BmrA [4]; extracted with C4C7, gel filtration in the presence of FC12, fraction a FIG. 12E): recovered active | ATPase activity of BmrA fraction reconstituted in liposomes (BmrA [4]; extracted with C4C7, gel filtration, then liposomes, fraction b FIG. 12E): elevated ATPase activity was recovered

CCCCCCCCCCCCOP(=O)([O-])OCC[N+](C)(C)C [FC12, n-dodecylphosphocholine]
Solubilization of BmrA (found in supernatant) (BmrA [1]): complete | ATPase activity of BmrA after reconstitution in liposomes (BmrA [4]; FIG. 11): recovered | ATPase activity of BmrA with solubilization (BmrA [4]): decreases with the solubilization | Loss of ATPase activity of BmrA once solubilized (BmrA [4]; FIG. 11): 99%

CCCCCCOc1c2cccc1Cc1cc(CC(=O)O)cc(c1O)Cc1cc(CC(=O)O)cc(c1O)Cc1cc(CC(=O)O)cc(c1O)C2 [compound 5c]
Solubilization of BmrA (found in supernatant) (BmrA [1]): more pronounced | Apparent diameter (nm) ([3]; pH 2): 850 nm | Apparent diameter (nm) ([3]; pH 6): 400 nm

CCCCOc1c2cccc1Cc1cc(CC(=O)O)cc(c1O)Cc1cc(CC(=O)O)cc(c1O)Cc1cc(CC(=O)O)cc(c1O)C2 [compound 5b, 5,11,17 tris-[(carboxylato)methyl]25-mono-butyloxy 26,27,28 tris-hydroxycalix[4]arene]
Solubilization of BmrA (found in supernatant) (BmrA [1]): increases progressively | Apparent diameter (nm) ([3]; pH 2): 500 nm | Apparent diameter (nm) ([3]; pH 6): 145 nm
